PubChem BioAssay (NCI)
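Step 1: Grow cells in 96-well plates. Step 2: Expose to compound for 48 hours at 5 concentrations. Step 3: Interpolate endpoints linearly; if unreached, use highest concentration. GI50: concentration for 50% inhibition of growth. TGI marks complete inhibition of growth.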

Experiments:
Assay in all cases: inhibition of tumour cell growth, NCI panel, 48 h
HS 578T breast = system: HS 578T breast
HCT-15 colon = system: HCT-15 colon
A549 NSCLC = system: A549 NSCLC
MOLT-4 leukemia = system: MOLT-4 leukemia
OVCAR-4 ovarian = system: OVCAR-4 ovarian
DU-145 prostate = system: DU-145 prostate
SK-MEL-28 melanoma = system: SK-MEL-28 melanoma
EKVX NSCLC = system: EKVX NSCLC
UO-31 renal = system: UO-31 renal
HT29 colon = system: HT29 colon
MALME-3M melanoma = system: MALME-3M melanoma
NCI-H522 lung = system: NCI-H522 lung
HL-60(TB) leukemia = system: HL-60(TB) leukemia
SK-MEL-2 melanoma = system: SK-MEL-2 melanoma
SN12C renal = system: SN12C renal
UACC-62 melanoma = system: UACC-62 melanoma
COLO 205 colon = system: COLO 205 colon
SW-620 colon = system: SW-620 colon
OVCAR-5 ovarian = system: OVCAR-5 ovarian
NCI-H460 lung = system: NCI-H460 lung
PC-3 prostate = system: PC-3 prostate
HCC-2998 colon = system: HCC-2998 colon
MDA-MB-435 = system: MDA-MB-435
OVCAR-3 ovarian = system: OVCAR-3 ovarian
ACHN renal = system: ACHN renal
T-47D breast = system: T-47D breast
786-0 renal = system: 786-0 renal
MDA-MB-231 breast = system: MDA-MB-231 breast
HCT-116 colon = system: HCT-116 colon
RPMI-8226 leukemia = system: RPMI-8226 leukemia
SK-OV-3 ovarian = system: SK-OV-3 ovarian
IGROV1 ovarian = system: IGROV1 ovarian
HOP-92 NSCLC = system: HOP-92 NSCLC
MCF7 breast = system: MCF7 breast
RXF 393 renal = system: RXF 393 renal
SF-268 CNS = system: SF-268 CNS
KM12 colon = system: KM12 colon
SF-295 CNS = system: SF-295 CNS
SR leukemia = system: SR leukemia
TK-10 renal = system: TK-10 renal
HOP-62 NSCLC = system: HOP-62 NSCLC
U251 CNS = system: U251 CNS
CAKI-1 renal = system: CAKI-1 renal
M14 melanoma = system: M14 melanoma
SK-MEL-5 melanoma = system: SK-MEL-5 melanoma
SNB-19 CNS = system: SNB-19 CNS
LOX IMVI melanoma = system: LOX IMVI melanoma
SNB-75 CNS = system: SNB-75 CNS
BT-549 breast = system: BT-549 breast
SF-539 CNS = system: SF-539 CNS
OVCAR-8 ovarian = system: OVCAR-8 ovarian
A498 renal = system: A498 renal
NCI-H226 lung = system: NCI-H226 lung
NCI/ADR-RES ovarian = system: NCI/ADR-RES ovarian
CCRF-CEM leukemia = system: CCRF-CEM leukemia
K-562 leukemia = system: K-562 leukemia
UACC-257 melanoma = system: UACC-257 melanoma

CC1=C([Se]CC(OC(=O)[C@@H](CO)NC(=O)OC(C)(C)C)C(=O)NCCCCCC(=O)OCc2ccccc2)C(=O)c2ccccc2C1=O (stereo not given in full)
GI50 (HS 578T breast): 1.99 µM
TGI (HS 578T breast): 4.64 µM
GI50 (HCT-15 colon): 1.93 µM
TGI (HCT-15 colon): 3.77 µM
GI50 (A549 NSCLC): 1.37 µM
TGI (A549 NSCLC): 3.07 µM
GI50 (MOLT-4 leukemia): 1.39 µM
TGI (MOLT-4 leukemia): 4.93 µM
GI50 (OVCAR-4 ovarian): 1.53 µM
TGI (OVCAR-4 ovarian): 2.86 µM
GI50 (DU-145 prostate): 1.82 µM
TGI (DU-145 prostate): 3.26 µM
GI50 (SK-MEL-28 melanoma): 1.79 µM
TGI (SK-MEL-28 melanoma): 3.21 µM
GI50 (EKVX NSCLC): 1.81 µM
TGI (EKVX NSCLC): 3.87 µM
GI50 (UO-31 renal): 1.54 µM
TGI (UO-31 renal): 3.03 µM
GI50 (HT29 colon): 2.15 µM
TGI (HT29 colon): 3.97 µM
GI50 (MALME-3M melanoma): 2.07 µM
TGI (MALME-3M melanoma): 3.82 µM
GI50 (NCI-H522 lung): 2.02 µM
TGI (NCI-H522 lung): 3.5 µM
GI50 (HL-60(TB) leukemia): 2.03 µM
TGI (HL-60(TB) leukemia): 4.82 µM
GI50 (SK-MEL-2 melanoma): 2.26 µM
TGI (SK-MEL-2 melanoma): 4.08 µM
GI50 (SN12C renal): 1.95 µM
TGI (SN12C renal): 3.59 µM
GI50 (UACC-62 melanoma): 1.68 µM
TGI (UACC-62 melanoma): 3.07 µM
GI50 (COLO 205 colon): 1.82 µM
TGI (COLO 205 colon): 3.35 µM
GI50 (SW-620 colon): 1.72 µM
TGI (SW-620 colon): 3.25 µM
GI50 (OVCAR-5 ovarian): 2.09 µM
TGI (OVCAR-5 ovarian): 3.65 µM
GI50 (NCI-H460 lung): 0.462 µM
TGI (NCI-H460 lung): 1.61 µM
GI50 (PC-3 prostate): 1.23 µM
TGI (PC-3 prostate): 2.58 µM
GI50 (HCC-2998 colon): 1.98 µM
TGI (HCC-2998 colon): 3.48 µM
GI50 (MDA-MB-435): 1.79 µM
TGI (MDA-MB-435): 3.49 µM
GI50 (OVCAR-3 ovarian): 1.79 µM
TGI (OVCAR-3 ovarian): 3.19 µM
GI50 (ACHN renal): 1.65 µM
TGI (ACHN renal): 3.07 µM
GI50 (T-47D breast): 1.62 µM
TGI (T-47D breast): 3.95 µM
GI50 (786-0 renal): 2.08 µM
TGI (786-0 renal): 3.53 µM
GI50 (MDA-MB-231 breast): 1.68 µM
TGI (MDA-MB-231 breast): 3.19 µM
GI50 (HCT-116 colon): 1.39 µM
TGI (HCT-116 colon): 2.73 µM
GI50 (RPMI-8226 leukemia): 2.18 µM
TGI (RPMI-8226 leukemia): 5.83 µM
GI50 (SK-OV-3 ovarian): 1.28 µM
TGI (SK-OV-3 ovarian): 2.56 µM
GI50 (IGROV1 ovarian): 1.79 µM
TGI (IGROV1 ovarian): 3.37 µM
GI50 (HOP-92 NSCLC): 1.87 µM
TGI (HOP-92 NSCLC): 3.32 µM
GI50 (MCF7 breast): 1.61 µM
TGI (MCF7 breast): 3.36 µM
GI50 (RXF 393 renal): 2.7 µM
TGI (RXF 393 renal): 4.18 µM
GI50 (SF-268 CNS): 1.85 µM
TGI (SF-268 CNS): 3.27 µM
GI50 (KM12 colon): 1.53 µM
TGI (KM12 colon): 2.9 µM
GI50 (SF-295 CNS): 0.321 µM
TGI (SF-295 CNS): 1.51 µM
GI50 (SR leukemia): 1.6 µM
TGI (SR leukemia): 6.55 µM
GI50 (TK-10 renal): 2.04 µM
TGI (TK-10 renal): 3.47 µM
GI50 (HOP-62 NSCLC): 0.414 µM
TGI (HOP-62 NSCLC): 1.75 µM
GI50 (U251 CNS): 0.94 µM
TGI (U251 CNS): 2.17 µM
GI50 (CAKI-1 renal): 1.8 µM
TGI (CAKI-1 renal): 3.32 µM
GI50 (M14 melanoma): 1.79 µM
TGI (M14 melanoma): 3.3 µM
GI50 (SK-MEL-5 melanoma): 1.59 µM
TGI (SK-MEL-5 melanoma): 2.96 µM
GI50 (SNB-19 CNS): 0.774 µM
TGI (SNB-19 CNS): 2.11 µM
GI50 (LOX IMVI melanoma): 1.84 µM
TGI (LOX IMVI melanoma): 3.72 µM
GI50 (SNB-75 CNS): 1.29 µM
TGI (SNB-75 CNS): 2.55 µM
GI50 (BT-549 breast): 1.73 µM
TGI (BT-549 breast): 3.11 µM
GI50 (SF-539 CNS): 1.7 µM
TGI (SF-539 CNS): 3.09 µM
GI50 (OVCAR-8 ovarian): 1.84 µM
TGI (OVCAR-8 ovarian): 3.36 µM
GI50 (A498 renal): 2.02 µM
TGI (A498 renal): 5.93 µM
GI50 (NCI-H226 lung): 2.25 µM
TGI (NCI-H226 lung): 4.41 µM

CC(C)CCCC(C)[C@H]1CC[C@H]2N=C(NCc3ccccc3)CCC[C@]12C (stereo not given in full)
TGI (HS 578T breast): 9.48 µM
TGI (OVCAR-4 ovarian): 8.75 µM
TGI (SK-MEL-28 melanoma): 2.96 µM
TGI (UO-31 renal): 8.29 µM
TGI (HT29 colon): 3.17 µM
TGI (HL-60(TB) leukemia): 7.63 µM
TGI (SN12C renal): 3.62 µM
TGI (NCI/ADR-RES ovarian): 3.15 µM
TGI (CCRF-CEM leukemia): 5.42 µM
TGI (UACC-62 melanoma): 3.48 µM
TGI (COLO 205 colon): 2.77 µM
TGI (K-562 leukemia): 3.23 µM
TGI (SW-620 colon): 4.45 µM
TGI (UACC-257 melanoma): 5.24 µM
TGI (NCI-H460 lung): 3.34 µM
TGI (PC-3 prostate): 4.93 µM
TGI (OVCAR-3 ovarian): 5.33 µM
TGI (T-47D breast): 8.01 µM
TGI (HCT-116 colon): > 100 µM
TGI (SK-OV-3 ovarian): 20.1 µM
TGI (HOP-92 NSCLC): 5.67 µM
TGI (MCF7 breast): 3.29 µM
TGI (RXF 393 renal): 3.14 µM
TGI (SF-268 CNS): 8.92 µM
TGI (SF-295 CNS): 3.62 µM
TGI (SR leukemia): 7.84 µM
TGI (TK-10 renal): 5.45 µM
TGI (HOP-62 NSCLC): 8.56 µM
TGI (CAKI-1 renal): 5.65 µM
TGI (SK-MEL-5 melanoma): 3.06 µM
TGI (SNB-19 CNS): 8.75 µM
TGI (SNB-75 CNS): 3.52 µM
TGI (BT-549 breast): 8.19 µM
TGI (A498 renal): 4.77 µM
